Laboratory results reported in US20180244611A1, “Modulators of the Cystic Fibrosis Transmembrane Conductance Regulator Protein and Methods of Use” (AbbVie S.à.r.l., priority 2017, published 2018).

How the values were obtained:
F508delCFTR [1] = target: T1, F508delCFTR (Homo sapiens, UniProt P13569, DEL508-508); test: Cell Surface Expression-Horse Radish Peroxidase (CSE-HRP) assay, test compound with co-corrector; type: cell-based; conditions: with 2 μM co-corrector; for Maximum % activity (with co-corrector): maximum at any tested concentration, normalized to positive control;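 for Maximum % activity (with co-corrector): percent of 2 µM positive control corrector over DMSO; co-corrector is that same compound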
T1 construct: expressed in transfected cells; host or cells: CFBE41o- human lung-derived epithelial cells (CFBE41o-F508delCFTR-HRP), doxycycline-inducible
How it was run: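 Surface-expression read-out: luminol luminescence from an HRP tag in the fourth exofacial loop of F508delCFTR, in doxycycline-induced (0.5 μg/mL, 72 h) CFBE41o- cells. Compound plus 2 μM co-corrector added for 18-24 h at 33° C., 8-point 3-fold series up to 20 μM. EC50 from a sigmoidal fit with variable Hill slope, normalised to positive control, triplicate plates.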

F508delCFTR [2] = target: T1, F508delCFTR; test: Cell Surface Expression-Horse Radish Peroxidase (CSE-HRP) assay, test compound without co-corrector; type: cell-based; conditions: for Emax: maximum at any tested concentration, normalized to positive control, without co-corrector; for EC50: test compound without co-corrector;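 for Emax: percent of on-plate 2 µM positive control corrector response over DMSO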
How it was run: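 Compound without co-corrector was tested at eight 3-fold concentrations, top 20 μM, for 18-24 h at 33° C on doxycycline-induced (0.5 μg/mL, 72 h) CFBE41o- F508delCFTR-HRP cells. After DPBS washes, luminol luminescence gave % activity relative to on-plate positive control minus DMSO; EC50 came from triplicate-plate sigmoidal fitting.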

T1 sequence (P13569 with tags, fused parts or gaps DEL508-508): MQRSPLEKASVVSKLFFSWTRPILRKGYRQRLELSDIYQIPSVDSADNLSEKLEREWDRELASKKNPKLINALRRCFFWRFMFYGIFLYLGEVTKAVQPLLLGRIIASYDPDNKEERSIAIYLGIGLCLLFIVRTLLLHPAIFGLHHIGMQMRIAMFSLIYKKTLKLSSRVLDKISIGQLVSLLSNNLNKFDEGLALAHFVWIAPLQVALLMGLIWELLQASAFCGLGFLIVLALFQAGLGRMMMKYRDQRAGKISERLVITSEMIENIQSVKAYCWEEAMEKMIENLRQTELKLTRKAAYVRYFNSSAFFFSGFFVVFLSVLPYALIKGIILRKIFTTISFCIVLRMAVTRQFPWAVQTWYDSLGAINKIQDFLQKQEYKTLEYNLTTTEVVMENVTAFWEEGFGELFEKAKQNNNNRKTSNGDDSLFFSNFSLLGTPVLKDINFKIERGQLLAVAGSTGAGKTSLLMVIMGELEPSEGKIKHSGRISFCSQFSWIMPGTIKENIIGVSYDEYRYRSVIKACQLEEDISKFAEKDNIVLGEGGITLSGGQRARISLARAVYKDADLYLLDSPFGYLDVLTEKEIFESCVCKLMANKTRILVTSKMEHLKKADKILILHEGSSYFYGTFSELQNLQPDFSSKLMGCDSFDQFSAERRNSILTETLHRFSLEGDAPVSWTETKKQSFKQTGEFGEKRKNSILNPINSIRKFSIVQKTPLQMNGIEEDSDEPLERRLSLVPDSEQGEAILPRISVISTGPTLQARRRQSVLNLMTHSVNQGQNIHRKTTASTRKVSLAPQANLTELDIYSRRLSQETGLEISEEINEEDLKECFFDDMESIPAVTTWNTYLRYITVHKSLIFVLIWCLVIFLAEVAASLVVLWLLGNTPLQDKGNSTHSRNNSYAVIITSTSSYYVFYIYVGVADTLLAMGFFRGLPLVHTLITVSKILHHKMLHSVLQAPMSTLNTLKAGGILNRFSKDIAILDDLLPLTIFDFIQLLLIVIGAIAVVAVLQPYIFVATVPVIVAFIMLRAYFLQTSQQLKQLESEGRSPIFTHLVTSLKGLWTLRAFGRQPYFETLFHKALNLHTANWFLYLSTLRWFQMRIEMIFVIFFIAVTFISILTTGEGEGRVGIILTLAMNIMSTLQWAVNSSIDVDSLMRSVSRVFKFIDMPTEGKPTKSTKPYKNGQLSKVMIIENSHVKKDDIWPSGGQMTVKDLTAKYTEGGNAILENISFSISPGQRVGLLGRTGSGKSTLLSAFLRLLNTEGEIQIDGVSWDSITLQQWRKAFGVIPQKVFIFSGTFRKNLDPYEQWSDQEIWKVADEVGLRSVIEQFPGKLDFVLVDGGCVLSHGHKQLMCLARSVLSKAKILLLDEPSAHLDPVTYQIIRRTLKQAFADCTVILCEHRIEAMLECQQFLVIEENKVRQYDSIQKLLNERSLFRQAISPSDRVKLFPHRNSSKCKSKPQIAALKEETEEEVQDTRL

Maximum % activity (with co-corrector) (F508delCFTR [1]) | EC50 (F508delCFTR [1]) | Emax (F508delCFTR [2]) | EC50 (F508delCFTR [2]) | Structure (SMILES)
+++ (≥350) | < 3 µM | ≥ 150% | 3 to 10 µM | COc1ccc(Br)c2c1C(C(=O)NS(=O)(=O)c1cccc3nccn13)CC2 (stereo not shown) [Example I-78, 4-bromo-N-(imidazo[1,2-a]pyridine-5-sulfonyl)-7-methoxy-2,3-dihydro-1H-indene-1-carboxamide]
+++ (≥350) | < 3 µM | ≥ 150% | 3 to 10 µM | COc1ccc(Br)c2c1C(C(=O)NS(=O)(=O)c1cccc3ccccc13)C2 (stereo not shown) [Example I-79, 2-bromo-5-methoxy-N-(naphthalene-1-sulfonyl)bicyclo[4.2.0]octa-1,3,5-triene-7-carboxamide]
+++ (≥350) | 3 to 10 µM | 50 to 150% | 3 to 10 µM | COc1ccc(C2CCC2)c2c1[C@@H](C(=O)NS(=O)(=O)c1cccc3ccccc13)CC2 [Example I-80, (1S)-4-cyclobutyl-7-methoxy-N-(naphthalene-1-sulfonyl)-2,3-dihydro-1H-indene-1-carboxamide]
+++ (≥350) | < 3 µM | ≥ 150% | < 3 µM | COc1ccc(C2CCC2)c2c1[C@H](C(=O)NS(=O)(=O)c1cccc3ccccc13)CC2 [Example I-81, (1R)-4-cyclobutyl-7-methoxy-N-(naphthalene-1-sulfonyl)-2,3-dihydro-1H-indene-1-carboxamide]
+++ (≥350) | < 3 µM | ≥ 150% | < 3 µM | O=C(NS(=O)(=O)c1cccc2ccccc12)C1CCCc2cccc(C3CCC3)c21 (stereo not shown) [Example I-82, 8-cyclobutyl-N-(naphthalene-1-sulfonyl)-1,2,3,4-tetrahydronaphthalene-1-carboxamide]
+++ (≥350) | < 3 µM | ≥ 150% | < 3 µM | CC1(C(=O)NS(=O)(=O)c2cccc3ccccc23)CCc2cccc(C3CCC3)c21 (stereo not shown) [Example I-83, 7-cyclobutyl-1-methyl-N-(naphthalene-1-sulfonyl)-2,3-dihydro-1H-indene-1-carboxamide]
+++ (≥350) | < 3 µM | ≥ 150% | 3 to 10 µM | COc1ccc(Br)c2c1CC[C@H]2C(=O)NS(=O)(=O)c1cccc2ccccc12 [Example I-84, (1R)-7-bromo-4-methoxy-N-(naphthalene-1-sulfonyl)-2,3-dihydro-1H-indene-1-carboxamide]
+++ (≥350) | 3 to 10 µM | 50 to 150% | 3 to 10 µM | COc1ccc(Br)c2c1CC[C@@H]2C(=O)NS(=O)(=O)c1cccc2ccccc12 [Example I-85, (1S)-7-bromo-4-methoxy-N-(naphthalene-1-sulfonyl)-2,3-dihydro-1H-indene-1-carboxamide]
+++ (≥350) | < 3 µM | ≥ 150% | < 3 µM | COc1ccc(C2CC2)c2c1C(C(=O)NS(=O)(=O)c1cccc3ccccc13)CCC2 (stereo not shown) [Example I-88, 5-cyclopropyl-8-methoxy-N-(naphthalene-1-sulfonyl)-1,2,3,4-tetrahydronaphthalene-1-carboxamide]
++ (≥150 and <350) | 3 to 10 µM | 50 to 150% | 3 to 10 µM | COc1ccc(OC)c2c1CC[C@@H]2C(=O)NS(=O)(=O)c1cccc2ccccc12 [Example I-89, (1S)-4,7-dimethoxy-N-(naphthalene-1-sulfonyl)-2,3-dihydro-1H-indene-1-carboxamide]
+++ (≥350) | 3 to 10 µM | ≥ 150% | 3 to 10 µM | COc1ccc(OC)c2c1CC[C@H]2C(=O)NS(=O)(=O)c1cccc2ccccc12 [Example I-90, (1R)-4,7-dimethoxy-N-(naphthalene-1-sulfonyl)-2,3-dihydro-1H-indene-1-carboxamide]
+++ (≥350) | 3 to 10 µM | 50 to 150% | 3 to 10 µM | COc1ccc(OC)c2c1CC[C@@H]2C(=O)NS(=O)(=O)c1cccc2ncccc12 [Example I-91, (1S)-4,7-dimethoxy-N-(quinoline-5-sulfonyl)-2,3-dihydro-1H-indene-1-carboxamide]
+++ (≥350) | < 3 µM | ≥ 150% | 3 to 10 µM | COc1ccc(OC)c2c1CC[C@H]2C(=O)NS(=O)(=O)c1cccc2ncccc12 [Example I-92, (1R)-4,7-dimethoxy-N-(quinoline-5-sulfonyl)-2,3-dihydro-1H-indene-1-carboxamide]
+++ (≥350) | 3 to 10 µM | ≥ 150% | 3 to 10 µM | COc1ccc(C(F)(F)F)c2c1[C@@H](C(=O)NS(=O)(=O)c1cccc3ccccc13)CC2 [Example I-93, (1S)-7-methoxy-N-(naphthalene-1-sulfonyl)-4-(trifluoromethyl)-2,3-dihydro-1H-indene-1-carboxamide]
+++ (≥350) | < 3 µM | ≥ 150% | < 3 µM | COc1ccc(C(F)(F)F)c2c1[C@H](C(=O)NS(=O)(=O)c1cccc3ccccc13)CC2 [Example I-94, (1R)-7-methoxy-N-(naphthalene-1-sulfonyl)-4-(trifluoromethyl)-2,3-dihydro-1H-indene-1-carboxamide]
+++ (≥350) | < 3 µM | ≥ 150% | 3 to 10 µM | COc1ccc(C(F)(F)F)c2c1[C@@H](C(=O)NS(=O)(=O)c1cccc3ncccc13)CC2 [Example I-95, (1S)-7-methoxy-N-(quinoline-5-sulfonyl)-4-(trifluoromethyl)-2,3-dihydro-1H-indene-1-carboxamide]
+++ (≥350) | < 3 µM | ≥ 150% | < 3 µM | COc1ccc(C(F)(F)F)c2c1[C@H](C(=O)NS(=O)(=O)c1cccc3ncccc13)CC2 [Example I-96, (1R)-7-methoxy-N-(quinoline-5-sulfonyl)-4-(trifluoromethyl)-2,3-dihydro-1H-indene-1-carboxamide]
+++ (≥350) | < 3 µM | ≥ 150% | < 3 µM | CCC1(C(=O)NS(=O)(=O)c2cccc3cnn(C)c23)CCc2c(Cl)cccc21 (stereo not shown) [Example I-97, 4-chloro-1-ethyl-N-(1-methyl-1H-indazole-7-sulfonyl)-2,3-dihydro-1H-indene-1-carboxamide]
+++ (≥350) | < 3 µM | ≥ 150% | < 3 µM | COc1ccc(Br)c2c1C(C(=O)NS(=O)(=O)c1cccc3cnn(C)c13)CC2 (stereo not shown) [Example I-98, 4-bromo-7-methoxy-N-(1-methyl-1H-indazole-7-sulfonyl)-2,3-dihydro-1H-indene-1-carboxamide]
+++ (≥350) | < 3 µM | ≥ 150% | 3 to 10 µM | COc1ccc(C2CCC2)c2c1C(C(=O)NS(=O)(=O)c1cccc3cnn(C)c13)CC2 (stereo not shown) [Example I-99, 4-cyclobutyl-7-methoxy-N-(1-methyl-1H-indazole-7-sulfonyl)-2,3-dihydro-1H-indene-1-carboxamide]
+++ (≥350) | < 3 µM | ≥ 150% | < 3 µM | COc1ccc(Br)c2c1C(C(=O)NS(=O)(=O)c1cccc3ncc(C)n13)CC2 (stereo not shown) [Example I-100, 4-bromo-7-methoxy-N-(3-methylimidazo[1,2-a]pyridine-5-sulfonyl)-2,3-dihydro-1H-indene-1-carboxamide]
+++ (≥350) | < 3 µM | ≥ 150% | < 3 µM | COc1ccc(Br)c2c1C(C(=O)NS(=O)(=O)c1cccc3nc(C)cn13)CC2 (stereo not shown) [Example I-101, 4-bromo-7-methoxy-N-(2-methylimidazo[1,2-a]pyridine-5-sulfonyl)-2,3-dihydro-1H-indene-1-carboxamide]
+++ (≥350) | < 3 µM | ≥ 150% | < 3 µM | COc1ccc(C2CCC2)c2c1C(C(=O)NS(=O)(=O)c1cccc3ccccc13)C2 (stereo not shown) [Example I-102, 2-cyclobutyl-5-methoxy-N-(naphthalene-1-sulfonyl)bicyclo[4.2.0]octa-1,3,5-triene-7-carboxamide]
+++ (≥350) | 3 to 10 µM | ≥ 150% | 3 to 10 µM | COc1ccc(C2CCC2)c2c1[C@H](C(=O)NS(=O)(=O)c1cccc3ncccc13)CC2 [Example I-103, (1R)-4-cyclobutyl-7-methoxy-N-(quinoline-5-sulfonyl)-2,3-dihydro-1H-indene-1-carboxamide]
+++ (≥350) | < 3 µM | ≥ 150% | 3 to 10 µM | COc1ccc(C2CCC2)c2c1[C@@H](C(=O)NS(=O)(=O)c1cccc3ncccc13)CC2 [Example I-104, (1S)-4-cyclobutyl-7-methoxy-N-(quinoline-5-sulfonyl)-2,3-dihydro-1H-indene-1-carboxamide]
